Test system: NOMO1
Assay: cell viability relative to DMSO control; higher = less cytotoxic
Conditions: 48 h
Procedure, shortened: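 Library compounds in DMSO were pin-dosed into 1536-well plates (5 μl) holding NOMO1 or SEM (500 cells/well) or P12-Ichikawa (1000 cells/well) leukemia cells, across an 11-point threefold series of 47 μM to 0.79 nM. Each cell line had been adapted for at least four passages in each medium. CellTiter-Glo One luminescence was read after 48 h at 37°C. Viability is the per-plate percentage relative to DMSO wells, with cell-free wells as background.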

[1] = HPLM + 10% dialyzed FBS, 0.000781 µM
[2] = HPLM + 10% dialyzed FBS, 0.00234 µM
[3] = HPLM + 10% dialyzed FBS, 0.00702 µM
[4] = HPLM + 10% dialyzed FBS, 0.0211 µM
[5] = HPLM + 10% dialyzed FBS, 0.0632 µM
[6] = HPLM + 10% dialyzed FBS, 0.19 µM
[7] = HPLM + 10% dialyzed FBS, 0.569 µM
[8] = HPLM + 10% dialyzed FBS, 1.71 µM
[9] = HPLM + 10% dialyzed FBS, 5.12 µM
[10] = HPLM + 10% dialyzed FBS, 15.4 µM
[11] = HPLM + 10% dialyzed FBS, 46.1 µM
[12] = RPMI 5 mM glucose + 10% FBS, 0.000781 µM
[13] = RPMI 5 mM glucose + 10% FBS, 0.00234 µM
[14] = RPMI 5 mM glucose + 10% FBS, 0.00702 µM
[15] = RPMI 5 mM glucose + 10% FBS, 0.0211 µM
[16] = RPMI 5 mM glucose + 10% FBS, 0.0632 µM
[17] = RPMI 5 mM glucose + 10% FBS, 0.19 µM
[18] = RPMI 5 mM glucose + 10% FBS, 0.569 µM
[19] = RPMI 5 mM glucose + 10% FBS, 1.71 µM
[20] = RPMI 5 mM glucose + 10% FBS, 5.12 µM
[21] = RPMI 5 mM glucose + 10% FBS, 15.4 µM
[22] = RPMI 5 mM glucose + 10% FBS, 46.1 µM
[23] = RPMI 5 mM glucose + 10% dialyzed FBS, 0.000781 µM
[24] = RPMI 5 mM glucose + 10% dialyzed FBS, 0.00234 µM
[25] = RPMI 5 mM glucose + 10% dialyzed FBS, 0.00702 µM
[26] = RPMI 5 mM glucose + 10% dialyzed FBS, 0.0211 µM
[27] = RPMI 5 mM glucose + 10% dialyzed FBS, 0.0632 µM
[28] = RPMI 5 mM glucose + 10% dialyzed FBS, 0.19 µM
[29] = RPMI 5 mM glucose + 10% dialyzed FBS, 0.569 µM
[30] = RPMI 5 mM glucose + 10% dialyzed FBS, 1.71 µM
[31] = RPMI 5 mM glucose + 10% dialyzed FBS, 5.12 µM
[32] = RPMI 5 mM glucose + 10% dialyzed FBS, 15.4 µM
[33] = RPMI 5 mM glucose + 10% dialyzed FBS, 46.1 µM

| SMILES | cell viability [1] [%] | cell viability [2] [%] | cell viability [3] [%] | cell viability [4] [%] | cell viability [5] [%] | cell viability [6] [%] | cell viability [7] [%] | cell viability [8] [%] | cell viability [9] [%] | cell viability [10] [%] | cell viability [11] [%] | cell viability [12] [%] | cell viability [13] [%] | cell viability [14] [%] | cell viability [15] [%] | cell viability [16] [%] | cell viability [17] [%] | cell viability [18] [%] | cell viability [19] [%] | cell viability [20] [%] | cell viability [21] [%] | cell viability [22] [%] | cell viability [23] [%] | cell viability [24] [%] | cell viability [25] [%] | cell viability [26] [%] | cell viability [27] [%] | cell viability [28] [%] | cell viability [29] [%] | cell viability [30] [%] | cell viability [31] [%] | cell viability [32] [%] | cell viability [33] [%] |
| --- | --- | --- | --- | --- | --- | --- | --- | --- | --- | --- | --- | --- | --- | --- | --- | --- | --- | --- | --- | --- | --- | --- | --- | --- | --- | --- | --- | --- | --- | --- | --- | --- | --- |
| O=C1\C=C/C=C2/[C@H]3CNC[C@H](C3)CN12 | 112 | 125 | 120 | 111 | 133 | 126 | 130 | 129 | 116 | 97.9 | 27.7 | 105 | 107 | 124 | 107 | 110 | 120 | 112 | 123 | 111 | 100 | 46.9 | 96.7 | 98.4 | 107 | 109 | 119 | 118 | 122 | 112 | 102 | 104 | 64.2 |
| N[C@H]2CN(CC12CC1)c3c(F)cc4c(c3Cl)[N@@](C=C(C4=O)C(=O)O)C5C[C@H]5F (some centres undefined) | 98.5 | 110 | 98.1 | 102 | 98.2 | 89.5 | 83.2 | 84 | 94 | 50.4 | 92.1 | 83.7 | 92 | 89.1 | 78.6 | 90.2 | 83.5 | 72.1 | 82 | 75.2 | 48.4 | 97.1 | 76.7 | 91 | 91.2 | 94.9 | 98.1 | 86.5 | 81.9 | 91.3 | 89.8 | 69 | 77 |
| N\C1=N\C2=C(N=C[N]2COCCO)C(=O)N1 | 93.1 | 106 | 123 | 112 | 103 | 119 | 104 | 125 | 98.3 | 102 | 73.4 | 106 | 96.8 | 109 | 109 | 103 | 95.4 | 98.1 | 103 | 103 | 97.4 | 96.9 | 112 | 101 | 103 | 97.8 | 93.8 | 113 | 106 | 109 | 107 | 100 | 71.5 |
| O=S(=O)([O-])CCS.[Na+] | 100 | 141 | 124 | 131 | 130 | 112 | 123 | 44.1 | 38.9 | 46.4 | 37.5 |  |  |  |  |  |  |  |  |  |  |  |  |  |  |  |  |  |  |  |  |  |  |
| CC(C)=CCC/C(C)=C/CC/C(C)=C/CSc1ccccc1C(=O)O | 93.2 | 119 | 104 | 104 | 116 | 102 | 90.4 | 68.8 | 76.4 | 57.4 | 29.8 | 103 |  | 104 | 103 | 96.1 | 99.1 | 96.2 | 95.2 | 86.8 | 67.9 | 43.5 | 98.2 | 103 | 109 | 106 | 116 | 97 | 87 | 77.1 | 61.8 | 64 | 39.3 |
| CC(C)(S)[C@@H](N)C(=O)O | 111 | 118 | 97.1 | 136 | 132 | 111 | 109 | 133 | 114 | 128 | 80.6 | 103 | 106 | 113 | 103 | 118 | 115 | 103 | 105 | 115 | 111 | 106 | 97.5 | 94.7 | 112 | 115 | 124 | 117 | 108 | 118 | 118 | 108 | 62.1 |
| C[C@@H]1CN(Cc2ccc(F)cc2)[C@@H](C)CN1C(=O)c1cc2c(C(=O)C(=O)N(C)C)cn(C)c2cc1Cl | 103 | 121 | 118 | 119 | 129 | 139 | 139 | 128 | 131 | 123 | 74.8 | 103 | 122 | 118 | 120 | 123 | 124 | 124 | 108 | 114 | 115 | 118 | 125 | 117 | 115 | 118 | 128 | 127 | 124 | 132 | 119 | 127 | 111 |
| CC(C)N(C[C@H]1O[C@@H](n2cnc3c(N)ncnc32)[C@H](O)[C@@H]1O)[C@H]1C[C@@H](CCc2nc3cc(C(C)(C)C)ccc3[nH]2)C1 | 96.9 | 98.5 | 111 | 109 | 110 | 109 | 113 | 79.3 | 36.1 | 65.5 | 7.55 | 84 | 92.4 | 113 | 91.5 | 91.8 | 115 | 94.9 | 113 | 99.1 | 93.3 | 9 | 74.4 | 95.6 | 97.2 | 91.8 | 95.3 | 103 | 102 | 99.9 | 86.6 | 96.1 | 6.04 |
| Cc1ccc(C(=O)Nc2cccc(C(F)(F)F)c2)cc1-c1ccc2nc(NCCN3CCOCC3)ncc2c1 | 128 | 122 | 111 | 118 | 118 | 126 | 117 | 108 | 50.7 | 29.5 | 10.8 | 115 | 106 | 125 | 113 | 123 | 114 | 116 | 103 | 57.3 | 32.7 | 10.3 | 129 | 116 | 115 | 124 | 118 | 113 | 114 | 102 | 54.2 | 33.4 | 11.6 |
| COc1ccc(C(CN(C)C)C2(O)CCCCC2)cc1 (centres undefined) | 101 | 125 | 124 | 125 | 115 | 127 | 120 | 104 | 124 | 94.5 | 95.3 | 44.9 | 118 | 122 | 118 | 113 | 120 | 104 | 104 | 107 | 97.2 | 109 | 46.1 | 111 | 111 | 117 | 105 | 104 | 96.4 | 109 | 97.9 | 111 | 100 |
| CC(NC(C)(C)C)C(=O)c1cccc(Cl)c1 (centres undefined) |  |  |  |  |  |  |  |  |  |  |  | 112 | 124 | 115 | 120 | 133 | 127 | 113 | 115 | 119 | 128 | 113 |  |  |  |  |  |  |  |  |  |  |  |
| CN1CCN(c2c(F)cc3c(=O)c(C(=O)O)cn(CCF)c3c2F)CC1 | 97.8 | 107 | 114 | 119 | 101 | 116 | 106 | 124 | 105 | 125 | 96.9 | 101 | 103 | 108 | 109 | 122 | 106 | 104 | 116 | 120 | 114 | 119 | 93.3 | 93.2 | 97.6 | 109 | 106 | 108 | 115 | 111 | 118 | 102 | 104 |
| O=C(CC12CC3CC(CC(C3)C1)C2)Nc1cccc2nc(NCCNCCO)ccc12 | 79.1 | 95.5 | 89.4 | 106 | 98 | 90.7 | 101 | 89.8 | 103 | 90.7 | 36.6 | 81.2 | 89.8 | 83.9 | 87.8 | 82.4 | 90.5 | 81 | 87.4 | 86.4 | 96.4 | 54.1 | 73.5 | 90.7 | 83.2 | 97.2 | 86.7 | 80.5 | 82.4 | 82.3 | 77.4 | 95.3 | 57.7 |
| O=C(O)CCCCC(CCSCc1ccccc1)SCc1ccccc1 (centres undefined) | 109 | 104 | 105 | 117 | 124 | 115 | 118 | 135 | 110 | 86 | 28.7 | 108 | 112 | 115 | 113 | 121 | 114 | 107 | 102 | 109 | 100 | 39.1 | 122 | 116 | 124 | 123 | 120 | 134 | 131 | 129 | 112 | 99.9 | 55.5 |
| CC1=C(/C=C/C(C)=C/C=C/C(C)=C\C(=O)O)C(C)(C)CCC1 | 85.3 | 99.5 | 85.6 | 92.5 | 105 | 96.2 | 97.1 | 84.3 | 84.2 | 83.4 | 97.4 | 75.9 | 82.4 | 78.7 | 86.3 | 89.5 | 97.2 | 93.6 | 84.1 | 84.3 | 86.6 | 80.5 | 82 | 90.6 | 86 | 102 | 93.2 | 87.9 | 95.1 | 87.2 | 76.6 | 87.1 | 77.3 |
| COc1ccc(C(=O)c2c(C)n(CCN3CCOCC3)c3ccccc23)cc1 | 87.4 | 99.9 | 98.1 | 108 | 107 | 129 | 107 | 104 | 95.2 | 90.2 | 87.6 | 91.7 | 92.5 | 94.4 | 91.7 | 85.4 | 99.6 | 82.9 | 97.1 | 95.7 | 88.6 | 93.7 | 87.1 | 84.2 | 92.5 | 88.5 | 104 | 76.9 | 98.9 | 92 | 87.9 | 86.6 | 92 |
| COc1ccc(OC)c(-c2nnc3ccc(-c4ccc(OC)c(O[C@@H]5CCOC5)c4)nn23)c1 |  |  |  |  |  |  |  |  |  |  |  |  |  |  |  |  |  |  |  |  |  |  | 123 | 120 | 140 | 128 | 137 | 140 | 134 | 147 | 137 | 145 | 98.3 |

— the supplement of paper PMC11451515
